# Patent US12570752B2, “Combination therapy with an anti BCMA antibody and a gamma secretase inhibitor” (priority 2019, dated 2026)
# Assays:
# [1] = cited from earlier work
# [2] = cited from earlier work; remark: listed apart in the source
# [3] = system: multiple myeloma cell line L363; experiment: L363 cell viability, nirogacestat pre-treatment then belantamab mafodotin or controls; format: cell-based; details: nirogacestat pre-treatment 24 hours, then treatment for additional 72 hours
Molecule,"incidence of dose-limiting diarrhea and elevated liver enzymes ([1]; compared with RO4929097 or MK-0752 (Messersmith, 2015))",safety profile versus other gamma-secretase inhibitors ([1]; in vivo),"incidence of secondary primary malignancies (SPM) or treatment-emergent infections ([1]; unlike e.g. semagacestat (Messersmith, 2015; Henley, 2014))",time to pharmacodynamically active plasma levels ([2]; after treatment initiation),exposure versus dose ([2]; between 20 and 330 mg BID),time to steady-state ([2]; repeated BID administration),effect on cell viability [3]
"CCC[C@H](N[C@H]1CCc2cc(F)cc(F)c2C1)C(=O)Nc1cn(C(C)(C)CNCC(C)(C)C)cn1 [nirogacestat, (S)-2-(((S)-6,8-difluoro-1,2,3,4-tetrahydronaphthalen-2-yl)amino)-N-(1-(2-methyl-1-(neopentylamino)propan-2-yl)-1H-imidazol-4-yl)pentanamide]",does not appear to be as high,better safety profile,there does not seem to be an increased incidence,< 48 h,dose-proportional,≤ 8 days,no effect
Belantamab,,,,,,,no effect
